Data on 23 compounds can be found in patent publication US9394268B2, “(E)-1-(5-methoxy-2,2-dimethyl-2H-chromen-8-yl)-3-(4-methoxyphenyl)prop-2-en-1-one and analogs thereof, as well as preparation method and use thereof” (Sichuan University, priority 2012, dated 2016).

Holding throughout (type): cell-based
One test concerns K562. Briefly: Cell proliferative assay (MTT), K562. The conditions noted are these: Homo sapiens, 72 h incubation, read-out: IC50s K562. The method, boiled down: (§1)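 Seed cells, incubate 24 h, add compounds at various doses, incubate 72 h, add MTT, measure absorbance at 590 nm. IC50 from dose-response curves, mean±SEM of ≥3 experiments.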
Another test relates to SW620. Briefly: Cell proliferative assay (MTT), SW620. The conditions noted are these: Homo sapiens, SW-620, 72 h incubation, read-out: IC50s SW620. Here is the method:
(§2) The synthesized compounds were evaluated for their cytotoxin activity against suspended tumor cells. These cells were seeded on 96-well plates and incubated for 24 h. Selected compounds were added at various doses and incubated for 72 h, MTT was then added, and the absorbance was measured at a wavelength of 590 nm. IC50 values are expressed as the mean±SEM from the dose-response curves of at least three independent experiments.

Another test has as its system HepG2. Briefly: Cell proliferative assay (MTT), HepG2. The conditions noted are these: Homo sapiens, 72 h incubation, read-out: IC50s HepG2. The gist of the method:
as §1

Another test relates to HCT116. Briefly: Cell proliferative assay (MTT), HCT116. The conditions noted are these: Homo sapiens, HCT-116, 72 h incubation, read-out: IC50s HCT116. Here is the method:
as §2

The next test has as its system HT29. Briefly: Cell proliferative assay (MTT), HT29. The conditions noted are these: Homo sapiens, HT-29, 72 h incubation, read-out: IC50s HT29. The method, then: as §2

Molecules are shown by their SMILES.

In the case of `COc1ccc(C(=O)/C=C/c2ccc(Br)cc2)c2c1C=CC(C)(C)O2` [SKLBC-8, (E)-3-(4-bromophenyl)-1-(5-methoxy-2,2-dimethyl-2H-chromen-8-yl)prop-2-en-1-one], the IC50 in the test on K562 is above 10 µM; with SW620, above 10 µM; with HepG2, above 10 µM; in the test on HCT116, 5.82 µM; in the test with HT29 it was above 10 µM.
For the compound `COc1ccc(C(=O)/C=C/c2ccc(-c3ccccc3)cc2)c2c1C=CC(C)(C)O2` [SKLBC-11, (E)-3-([1,1′-biphenyl]-4-yl)-1-(5-methoxy-2,2-dimethyl-2H-chromen-8-yl)prop-2-en-1-one], the IC50 with K562, with SW620, in the test with HepG2, with HCT116 and in the test on HT29 was above 10 µM each time.
`COc1ccc(C(=O)/C=C/c2ccc(N(c3ccccc3)c3ccccc3)cc2)c2c1C=CC(C)(C)O2` [SKLBC-13, (E)-3-(4-(diphenylamino)phenyl)-1-(5-methoxy-2,2-dimethyl-2H-chromen-8-yl)prop-2-en-1-one]: the IC50 with K562 was above 10 µM; in the test on SW620, above 10 µM; with HepG2, above 10 µM; with HCT116 it was 4.53 µM; with HT29 it was above 10 µM.
Consider `COc1ccc(C(=O)/C=C/c2ccc(-n3ccnc3)cc2)c2c1C=CC(C)(C)O2` [SKLBC-15, (E)-3-(4-(1H-imidazol-1-yl)phenyl)-1-(5-methoxy-2,2-dimethyl-2H-chromen-8-yl)prop-2-en-1-one], for which the IC50 in the test with K562 is above 10 µM; with SW620, above 10 µM; in the test on HepG2, above 10 µM; in the test on HCT116 it was 8.05 µM; in the test with HT29, 6.6 µM.
With `COc1ccc(C(=O)/C=C/c2ccc(C(F)(F)F)cc2)c2c1C=CC(C)(C)O2` [SKLBC-19, (E)-1-(5-methoxy-2,2-dimethyl-2H-chromen-8-yl)-3-(4-(trifluoromethyl)phenyl)prop-2-en-1-one], the IC50 with K562, with SW620, in the test with HepG2, in the test on HCT116 and in the test on HT29 was above 10 µM in each case.
In the case of `COc1ccc(C(=O)/C=C/c2ccccc2)c2c1C=CC(C)(C)O2` [SKLBC-20, (E)-1-(5-methoxy-2,2-dimethyl-2H-chromen-8-yl)-3-phenylprop-2-en-1-one], the IC50 in the test on K562, with SW620, in the test with HepG2, with HCT116 and in the test on HT29 was above 10 µM each time.
Regarding `COc1ccc(/C=C/C(=O)c2ccc(OC)c3c2OC(C)(C)C=C3)cn1` [SKLBC-21, (E)-1-(5-methoxy-2,2-dimethyl-2H-chromen-8-yl)-3-(6-methoxypyridin-3-yl)prop-2-en-1-one], the IC50 in the test on K562, with SW620, with HepG2, in the test on HCT116 and with HT29 was above 10 µM throughout.
Regarding `COc1ccc(C(=O)/C=C/c2ccc(O)cc2)c2c1C=CC(C)(C)O2` [SKLBC-22, (E)-3-(4-hydroxyphenyl)-1-(5-methoxy-2,2-dimethyl-2H-chromen-8-yl)prop-2-en-1-one], the IC50 in the test on K562, in the test with SW620, with HepG2, in the test with HCT116 and in the test on HT29 was above 10 µM throughout.
In the case of `COc1ccc(C(=O)/C=C/c2cccc(O)c2)c2c1C=CC(C)(C)O2` [SKLBC-23, (E)-3-(3-hydroxyphenyl)-1-(5-methoxy-2,2-dimethyl-2H-chromen-8-yl)prop-2-en-1-one], the IC50 with K562, with SW620, in the test on HepG2, in the test with HCT116 and with HT29 was above 10 µM throughout.
In the case of `COc1ccc(C(=O)/C=C/c2ccc(OC)c(OC)c2OC)c2c1C=CC(C)(C)O2` [SKLBC-24, (E)-1-(5-methoxy-2,2-dimethyl-2H-chromen-8-yl)-3-(2,3,4-trimethoxyphenyl)prop-2-en-1-one], the IC50 with K562, with SW620, with HepG2, with HCT116 and in the test on HT29 was above 10 µM each time.
In the case of `COc1ccc(C(=O)/C=C/c2cccc(C(F)(F)F)c2)c2c1C=CC(C)(C)O2` [SKLBC-25, (E)-1-(5-methoxy-2,2-dimethyl-2H-chromen-8-yl)-3-(3-(trifluoromethyl)phenyl)prop-2-en-1-one], the IC50 is above 10 µM with K562; above 10 µM in the test with SW620; above 10 µM in the test on HepG2; 9.71 µM in the test with HCT116; above 10 µM in the test with HT29.
Take `CCOc1cc(/C=C/C(=O)c2ccc(OC)c3c2OC(C)(C)C=C3)ccc1O` [SKLBC-26, (E)-3-(3-ethoxy-4-hydroxyphenyl)-1-(5-methoxy-2,2-dimethyl-2H-chromen-8-yl)prop-2-en-1-one]: the IC50 in the test on K562, with SW620, in the test with HepG2, in the test with HCT116 and with HT29 was above 10 µM throughout.
Regarding `COc1ccc(C(=O)/C=C/c2ccsc2)c2c1C=CC(C)(C)O2` [SKLBC-27, (E)-1-(5-methoxy-2,2-dimethyl-2H-chromen-8-yl)-3-(thiophen-3-yl)prop-2-en-1-one], the IC50 in the test on K562, in the test with SW620, in the test on HepG2, in the test with HCT116 and in the test with HT29 was above 10 µM each time.
For `COc1ccc(C(=O)/C=C/c2ccc(O)c(Br)c2)c2c1C=CC(C)(C)O2` [SKLBC-29, (E)-3-(3-bromo-4-hydroxyphenyl)-1-(5-methoxy-2,2-dimethyl-2H-chromen-8-yl)prop-2-en-1-one], the IC50 in the test on K562, with SW620, in the test on HepG2, with HCT116 and with HT29 was above 10 µM throughout.
Turning to `COc1cc(/C=C/C(=O)c2ccc(OC)c3c2OC(C)(C)C=C3)cc(OC)c1O` [SKLBC-30, (E)-3-(4-hydroxy-3,5-dimethoxyphenyl)-1-(5-methoxy-2,2-dimethyl-2H-chromen-8-yl)prop-2-en-1-one], the IC50 in the test on K562, in the test on SW620, with HepG2, in the test with HCT116 and with HT29 was above 10 µM each time.
As to `COc1ccc(C(=O)/C=C/c2ccco2)c2c1C=CC(C)(C)O2` [SKLBC-31, (E)-3-(furan-2-yl)-1-(5-methoxy-2,2-dimethyl-2H-chromen-8-yl)prop-2-en-1-one], the IC50 in the test with K562, in the test with SW620, in the test on HepG2, in the test on HCT116 and with HT29 was above 10 µM in each case.
On to `COc1ccc(C(=O)/C=C/c2cccc3ccccc23)c2c1C=CC(C)(C)O2` [SKLBC-32, (E)-1-(5-methoxy-2,2-dimethyl-2H-chromen-8-yl)-3-(naphthalen-1-yl)prop-2-en-1-one], for which the IC50 in the test on K562, in the test on SW620, with HepG2, with HCT116 and with HT29 was above 10 µM in each case.
Turning to `COc1ccc(C(=O)/C=C/c2ccc(Cl)cc2)c2c1C=CC(C)(C)O2` [SKLBC-34, (E)-3-(4-chlorophenyl)-1-(5-methoxy-2,2-dimethyl-2H-chromen-8-yl)prop-2-en-1-one], the IC50 in the test with K562, in the test on SW620, in the test on HepG2, with HCT116 and in the test with HT29 was above 10 µM each time.
Turning to `COc1ccc(C(=O)/C=C/c2cccc(Cl)c2)c2c1C=CC(C)(C)O2` [SKLBC-35, (E)-3-(3-chlorophenyl)-1-(5-methoxy-2,2-dimethyl-2H-chromen-8-yl)prop-2-en-1-one], the IC50 with K562, with SW620, in the test with HepG2, in the test on HCT116 and in the test on HT29 was above 10 µM throughout.
As to `COc1ccc(C(=O)/C=C/c2cccs2)c2c1C=CC(C)(C)O2` [SKLBC-36, (E)-1-(5-methoxy-2,2-dimethyl-2H-chromen-8-yl)-3-(thiophen-2-yl)prop-2-en-1-one], the IC50 in the test with K562, with SW620, in the test with HepG2, in the test with HCT116 and in the test on HT29 was above 10 µM in each case.
For the compound `COc1ccc(C(=O)/C=C/c2ccc(Cl)c(Cl)c2)c2c1C=CC(C)(C)O2` [SKLBC-37, (E)-3-(3,4-dichlorophenyl)-1-(5-methoxy-2,2-dimethyl-2H-chromen-8-yl)prop-2-en-1-one], the IC50 in the test with K562 was above 10 µM; in the test with SW620, above 10 µM; in the test on HepG2, above 10 µM; with HCT116, 9.44 µM; in the test on HT29, above 10 µM.
On to `COc1ccc(C(=O)/C=C/c2cc(Cl)ccc2O)c2c1C=CC(C)(C)O2` [SKLBC-38, (E)-3-(5-chloro-2-hydroxyphenyl)-1-(5-methoxy-2,2-dimethyl-2H-chromen-8-yl)prop-2-en-1-one], for which the IC50 in the test with K562 was above 10 µM; in the test with SW620, above 10 µM; in the test on HepG2 it was above 10 µM; in the test with HCT116, 5.24 µM; in the test on HT29 it was above 10 µM.
Take `COc1ccc(C(=O)/C=C/c2ccccc2Cl)c2c1C=CC(C)(C)O2` [SKLBC-39, (E)-3-(2-chlorophenyl)-1-(5-methoxy-2,2-dimethyl-2H-chromen-8-yl)prop-2-en-1-one]: the IC50 in the test on K562, in the test with SW620, in the test on HepG2, in the test with HCT116 and in the test with HT29 was above 10 µM in each case.
